{"source": "BindingDB's records for doi:10.1016/j.bmcl.2018.05.027", "about": "(Bristol-Myers Squibb Research and Development, 2018)", "key": {"[1]": {"test": "Inhibition of HIV-1 integrase strand transfer activity assessed as reduction in viral replication in presence of 10% fetal bovine serum"}, "[2]": {"test": "Inhibition of HIV-1 integrase strand transfer activity assessed as reduction in viral replication in presence of 10% fetal bovine serum and 15 mg/mL human serum albumin"}, "[3]": {"test": "Inhibition of HIV-1 integrase strand transfer activity assessed as reduction in viral replication in presence of 40% human serum"}}, "data": [{"smiles": "CC1(C)OCCn2c1nc(C(=O)NCc1ccc(F)cc1N1CCOCC1)c(O)c2=O", "values": [{"measurement": "EC50", "setting": "[1]", "value": 2, "unit": "nM"}, {"measurement": "EC50", "setting": "[2]", "value": 19, "unit": "nM"}]}, {"smiles": "CC1(C)OCCn2c1nc(C(=O)NCc1ccc(F)cc1Cl)c(O)c2=O", "values": [{"measurement": "EC50", "setting": "[1]", "value": 53, "unit": "nM"}, {"measurement": "EC50", "setting": "[2]", "value": 857, "unit": "nM"}]}, {"smiles": "CN(C)S(=O)(=O)c1cc(F)ccc1CNC(=O)c1nc2n(c(=O)c1O)CCCC21CCCC1", "values": [{"measurement": "EC50", "setting": "[1]", "value": 3, "unit": "nM"}, {"measurement": "EC50", "setting": "[2]", "value": 27, "unit": "nM"}]}, {"smiles": "Cc1cc(F)ccc1CNC(=O)c1nc2n(c(=O)c1O)CCOC2(C)C", "values": [{"measurement": "EC50", "setting": "[1]", "value": 21, "unit": "nM"}, {"measurement": "EC50", "setting": "[2]", "value": 557, "unit": "nM"}]}, {"smiles": "CN(C)S(=O)(=O)c1c(CNC(=O)c2nc3n(c(=O)c2O)CCOC3(C)C)ccc(F)c1F", "values": [{"measurement": "EC50", "setting": "[1]", "value": 3, "unit": "nM"}, {"measurement": "EC50", "setting": "[2]", "value": 12, "unit": "nM"}]}, {"smiles": "CS(=O)(=O)c1cc(F)ccc1CNC(=O)c1nc2n(c(=O)c1O)CCCC21CCCC1", "values": [{"measurement": "EC50", "setting": "[1]", "value": 1, "unit": "nM"}, {"measurement": "EC50", "setting": "[2]", "value": 8, "unit": "nM"}]}, {"smiles": "Cc1cc(CNC(=O)c2nc3n(c(=O)c2O)CCOC3(C)C)ccc1F", "values": [{"measurement": "EC50", "setting": "[1]", "value": 1, "unit": "nM"}, {"measurement": "EC50", "setting": "[2]", "value": 90, "unit": "nM"}]}, {"smiles": "CC1(C)OCCn2c1nc(C(=O)NCc1ccc(F)cc1N1CCCCS1(=O)=O)c(O)c2=O", "values": [{"measurement": "EC50", "setting": "[1]", "value": 2, "unit": "nM"}, {"measurement": "EC50", "setting": "[2]", "value": 7, "unit": "nM"}]}, {"smiles": "CC1(C)OCCn2c1nc(C(=O)NCc1ccc(F)cc1)c(O)c2=O", "values": [{"measurement": "EC50", "setting": "[3]", "value": 25, "unit": "nM"}, {"measurement": "EC50", "setting": "[1]", "value": 2, "unit": "nM"}, {"measurement": "EC50", "setting": "[2]", "value": 17, "unit": "nM"}]}, {"smiles": "CC1(C)OCCn2c1nc(C(=O)NCc1ccc(F)c(Cl)c1)c(O)c2=O", "values": [{"measurement": "EC50", "setting": "[1]", "value": 2, "unit": "nM"}, {"measurement": "EC50", "setting": "[2]", "value": 84, "unit": "nM"}]}, {"smiles": "O=C(NCc1ccc(F)cc1S(=O)(=O)N1CCOCC1)c1nc2n(c(=O)c1O)CCCC21CCCC1", "values": [{"measurement": "EC50", "setting": "[1]", "value": 3, "unit": "nM"}, {"measurement": "EC50", "setting": "[2]", "value": 14, "unit": "nM"}]}, {"smiles": "O=C(NCc1ccc(F)cc1N1CCCCS1(=O)=O)c1nc2n(c(=O)c1O)CCCC21CCCC1", "values": [{"measurement": "EC50", "setting": "[1]", "value": 2, "unit": "nM"}, {"measurement": "EC50", "setting": "[2]", "value": 21, "unit": "nM"}]}, {"smiles": "CC1(C)OCCn2c1nc(C(=O)NCc1ccc(F)cc1S(C)(=O)=O)c(O)c2=O", "values": [{"measurement": "EC50", "setting": "[1]", "value": 3, "unit": "nM"}, {"measurement": "EC50", "setting": "[2]", "value": 6, "unit": "nM"}]}, {"smiles": "O=C(NCc1ccc(F)cc1)c1nc2n(c(=O)c1O)CCCC21CCCC1", "values": [{"measurement": "EC50", "setting": "[1]", "value": 2, "unit": "nM"}, {"measurement": "EC50", "setting": "[2]", "value": 19, "unit": "nM"}]}, {"smiles": "CNC(=O)c1cc(F)ccc1CNC(=O)c1nc2n(c(=O)c1O)CCOC2(C)C", "values": [{"measurement": "EC50", "setting": "[1]", "value": 2, "unit": "nM"}, {"measurement": "EC50", "setting": "[2]", "value": 3, "unit": "nM"}]}, {"smiles": "Cc1cc(CNC(=O)c2nc3n(c(=O)c2O)CCCC32CCCC2)ccc1F", "values": [{"measurement": "EC50", "setting": "[1]", "value": 5, "unit": "nM"}, {"measurement": "EC50", "setting": "[2]", "value": 149, "unit": "nM"}]}]}
